Data published in ChEMBL document CHEMBL4483862, “Open-source discovery of chemical leads for next-generation chemoprotective antimalarials” (2018).

Tested on: Plasmodium berghei
Assay: Luciferase/luciferin-expressing antifolate-resistant parasites were used to infect a culture of HepG2 cells that were pre-incubated with compounds. Infected hepatocytes emit light due to the luciferase reaction. Assay results are presented as the percent inhibition of light emission compared to control. […]
Assay type: functional
Details: sporozoite; for IC90: read-out: LUCIFERASE INFECTION ASSAY - IC90
[1] = read-out: LUCIFERASE INFECTION ASSAY - IC50

SMILES	IC90 [µM]	IC50 [1] [µM]	further results
Cc1c(C)n(CCCO)c2ncn3nc(-c4ccc(F)cc4)nc3c12	5.99	–	IC50 (FFLUC_HILL_SLOPE 1.57, FFLUC_R_SQUARED 0.582, PBLUC_HILL_SLOPE 0.753, PBLUC_R_SQUARED 0.936, read-out: LUCIFERASE INFECTION ASSAY - IC50): 0.324 µM
CN(C(=O)COC(=O)c1nc(Cl)c(Cl)c(Cl)c1Cl)C1CCS(=O)(=O)C1 (configuration not stated)	> 10	–	IC50 (HEPG2TOX_HILL_SLOPE 15.2, HEPG2TOX_R_SQUARED 0.451, read-out: LUCIFERASE INFECTION ASSAY - IC50): > 10 µM
CCOc1ccc2ccccc2c1/C=C/c1ccc2cccc(O)c2n1	3.84	–	IC50 (HEPG2TOX_HILL_SLOPE 14.8, HEPG2TOX_R_SQUARED 0.407, PBLUC_HILL_SLOPE 11.5, PBLUC_R_SQUARED 0.372, read-out: LUCIFERASE INFECTION ASSAY - IC50): 3.17 µM
COc1ccc(NC(=O)Nc2ccc3nc(-c4ccccc4)nn3c2)cc1OC	> 10	> 10	–
CC(C)(C)c1ccc(COc2cccnc2N=CNO)cc1	> 11	–	IC50 (PBLUC_HILL_SLOPE 1.74, PBLUC_R_SQUARED 0.362, read-out: LUCIFERASE INFECTION ASSAY - IC50): 6.6 µM
CC(C)(C)c1ccc(-c2nnc(SCC(=O)N3CCc4ccccc4C3)n2Cc2ccccc2)cc1	> 10	> 10	–
Cc1cccc(-c2nn(-c3ccccc3)cc2/C=C/C(=O)c2c(C)[nH]c(=O)[nH]c2=O)c1	> 10	–	IC50 (PBLUC_HILL_SLOPE 3.1, PBLUC_R_SQUARED 0.412, read-out: LUCIFERASE INFECTION ASSAY - IC50): 5.95 µM
CN(C)c1ccc(C(c2ccc(OC(F)(F)F)cc2)c2ccc(N(C)C)cc2)cc1	3.56	–	IC50 (FFLUC_HILL_SLOPE 27.2, FFLUC_R_SQUARED 0.132, HEPG2TOX_HILL_SLOPE 6.02, HEPG2TOX_R_SQUARED 0.417, PBLUC_HILL_SLOPE 10.6, PBLUC_R_SQUARED 0.521, read-out: LUCIFERASE INFECTION ASSAY - IC50): 2.89 µM
FC(F)(F)c1ccc(N/N=C/c2sc(N3CCOCC3)nc2-c2ccccc2)c(Cl)c1	> 10	–	IC50 (FFLUC_HILL_SLOPE 1.6, FFLUC_R_SQUARED 0.81, read-out: LUCIFERASE INFECTION ASSAY - IC50): > 10 µM
COc1ccc(Cl)cc1N1C(=O)/C(=C\c2sccc2C)N=C1SCc1cc(=O)n2ccsc2n1	> 10	–	IC50 (FFLUC_HILL_SLOPE 14.8, FFLUC_R_SQUARED 0.288, PBLUC_HILL_SLOPE 0.636, PBLUC_R_SQUARED 0.525, read-out: LUCIFERASE INFECTION ASSAY - IC50): 2.55 µM
CCN1C(=O)N(Cc2cccc(OC)c2)C(=O)C12CCN(Cc1cn(C)c3ccccc13)CC2	> 7.16	–	IC50 (PBLUC_HILL_SLOPE 4.47, PBLUC_R_SQUARED 0.0939, read-out: LUCIFERASE INFECTION ASSAY - IC50): 6.08 µM
COc1ccc(C(N)c2csc(NC(=O)Nc3ccccc3C(C)C)n2)cc1 (configuration not stated)	3.02	–	IC50 (PBLUC_HILL_SLOPE 13.4, PBLUC_R_SQUARED 0.332, read-out: LUCIFERASE INFECTION ASSAY - IC50): 2.57 µM
CCN(Cc1ccc2c(c1)OCO2)C(=O)c1oc2c(F)cccc2c1C	> 10	–	IC50 (FFLUC_HILL_SLOPE 1.31, FFLUC_R_SQUARED 0.0559, read-out: LUCIFERASE INFECTION ASSAY - IC50): > 10 µM
COc1ccc(CNC(=O)c2ccc3c(c2)NC(=O)C(C)S3)cc1OC (configuration not stated)	> 10	> 10	–
CC(=O)N(c1nc(/C=C/C(=O)c2ccc(F)c(Br)c2)cs1)c1ccc(F)cc1F	> 10	> 10	–
Fc1ccc2[nH]cc(CCNc3nc(Cl)nc4nc[nH]c34)c2c1	4.27	–	IC50 (HEPG2TOX_HILL_SLOPE 2.14, HEPG2TOX_R_SQUARED 0.948, PBLUC_HILL_SLOPE 1.79, PBLUC_R_SQUARED 0.853, read-out: LUCIFERASE INFECTION ASSAY - IC50): 1.25 µM
COCOc1ccc(-c2cc(-c3ccc(N)nc3)cnc2N)cc1	3.91	–	IC50 (PBLUC_HILL_SLOPE 17.1, PBLUC_R_SQUARED 0.834, read-out: LUCIFERASE INFECTION ASSAY - IC50): 3.44 µM
Cn1c(=O)n(C2CCCCC2)c(=O)c2ccccc21	> 12.8	> 12.8	–
Cc1cnc(NC(=O)c2ccc(C3SCCS3)cc2)s1	> 10	0.273	–
O=C(c1cc(-c2ccccc2)n[nH]1)N1CCN(c2ccccc2F)CC1	> 10	> 10	–
CC1=NC(C)=C(C#N)C(c2cc(Br)ccc2OC(F)F)C1C#N (configuration not stated)	4.24	–	IC50 (HEPG2TOX_HILL_SLOPE 2.06, HEPG2TOX_R_SQUARED 0.906, PBLUC_HILL_SLOPE 11.5, PBLUC_R_SQUARED 0.189, read-out: LUCIFERASE INFECTION ASSAY - IC50): 3.51 µM

SMILES	IC90 [µM]	IC50 [1] [µM]	further results
O=C(CN1CCN(C(=O)CCc2cnn(-c3ccccc3)c2)CC1)NC1CC1	> 10	> 10	–
N#Cc1ccc(C(=O)Nc2nc(-c3c[nH]c4ccccc34)cs2)cc1	> 10	–	IC50 (PBLUC_HILL_SLOPE 15.6, PBLUC_R_SQUARED 0.4, read-out: LUCIFERASE INFECTION ASSAY - IC50): 9.53 µM
CC1=C(C(=O)c2ccc(Cl)cc2)C(c2ccc(C(F)(F)F)cc2)NC(=O)N1 (configuration not stated)	> 10	> 10	–
Cc1cc(=O)[nH]c(SCC(=O)c2cc(C)n(-c3ccccc3)c2C)c1C#N	> 10	> 10	–
CCOC(=O)c1c(S(=O)(=O)N2CCN(Cc3ccccc3)CC2)c(-c2ccccc2)n(-c2ccccc2)c1C	> 6.07	–	IC50 (FFLUC_HILL_SLOPE 3.32, FFLUC_R_SQUARED 0.581, read-out: LUCIFERASE INFECTION ASSAY - IC50): > 6.07 µM
Nc1ncc(-c2cccc(OC(F)(F)F)c2)cc1-c1cncc2ccccc12	3.99	–	IC50 (HEPG2TOX_HILL_SLOPE 2.29, HEPG2TOX_R_SQUARED 0.959, PBLUC_HILL_SLOPE 12.1, PBLUC_R_SQUARED 0.284, read-out: LUCIFERASE INFECTION ASSAY - IC50): 3.33 µM
COc1cc2c(cc1OC)C(c1cccs1)N(C(=O)CC1CCCC1)CC2 (configuration not stated)	> 10	–	IC50 (FFLUC_HILL_SLOPE 12.1, FFLUC_R_SQUARED 0.331, HEPG2TOX_HILL_SLOPE 1.22, HEPG2TOX_R_SQUARED 0.987, PBLUC_HILL_SLOPE 1.62, PBLUC_R_SQUARED 0.49, read-out: LUCIFERASE INFECTION ASSAY - IC50): 2.88 µM
O=C1Nc2ccc(Cl)cc2/C1=C/c1nn(Cc2ccccc2)cc1-c1cccnc1	> 10	–	IC50 (FFLUC_HILL_SLOPE 9.69, FFLUC_R_SQUARED 0.424, PBLUC_HILL_SLOPE 9.27, PBLUC_R_SQUARED 0.306, read-out: LUCIFERASE INFECTION ASSAY - IC50): 8.59 µM
CC(C)N(C(=O)CN1CCN(c2ccccc2Cl)CC1)c1ccc(Nc2ccccc2)cc1	> 10	4.84	–
CCOc1ccc(-n2c(Sc3ccc4nnnn4n3)nnc2-c2ccc(C(C)(C)C)cc2)cc1	9.4	–	IC50 (FFLUC_HILL_SLOPE 16.9, FFLUC_R_SQUARED 0.24, PBLUC_HILL_SLOPE 5, PBLUC_R_SQUARED 0.626, read-out: LUCIFERASE INFECTION ASSAY - IC50): 6.06 µM
Cc1c(Cl)cccc1-n1c(SCC(=O)N(CCC#N)c2ccccc2)nc2ccccc2c1=O	> 10	–	IC50 (PBLUC_HILL_SLOPE 15.9, PBLUC_R_SQUARED 0.269, read-out: LUCIFERASE INFECTION ASSAY - IC50): 9.73 µM
COc1ccc(OC)c(NC(=O)c2cc(-c3cc(Cl)ccc3O)[nH]n2)c1	> 8.83	–	IC50 (HEPG2TOX_HILL_SLOPE 2.05, HEPG2TOX_R_SQUARED 0.718, PBLUC_HILL_SLOPE 2.04, PBLUC_R_SQUARED 0.622, read-out: LUCIFERASE INFECTION ASSAY - IC50): 4.02 µM
COc1cc(/C=C2\COC/C(=C\c3cc(OC)c(OC)c(OC)c3)C2=O)cc(OC)c1OC	0.888	–	IC50 (HEPG2TOX_HILL_SLOPE 2.96, HEPG2TOX_R_SQUARED 0.98, PBLUC_HILL_SLOPE 14, PBLUC_R_SQUARED 0.753, read-out: LUCIFERASE INFECTION ASSAY - IC50): 0.759 µM
Cc1noc(C)c1COc1ccc(C(=O)OCC(=O)NC(C)C23CC4CC(CC(C4)C2)C3)cc1 (configuration not stated)	> 10	> 10	–
CCOC(=O)c1cc(C#N)c(Sc2n[nH]c(=O)n2Cc2ccccc2)nc1C(F)(F)F	> 7.34	> 7.34	–
Cc1cccc(-n2cc(-c3ccccc3)c3c(N4CCN(C)CC4)ncnc32)c1	> 10	–	IC50 (HEPG2TOX_HILL_SLOPE 7.66, HEPG2TOX_R_SQUARED 0.38, PBLUC_HILL_SLOPE 2.7, PBLUC_R_SQUARED 0.572, read-out: LUCIFERASE INFECTION ASSAY - IC50): 6.64 µM
CCCCc1c(O)cc2n(c1=O)-c1ccc(Cl)cc1C2(C)C	> 10.4	–	IC50 (HEPG2TOX_HILL_SLOPE 9.65, HEPG2TOX_R_SQUARED 0.788, PBLUC_HILL_SLOPE 4.5, PBLUC_R_SQUARED 0.532, read-out: LUCIFERASE INFECTION ASSAY - IC50): 7.82 µM
Cc1cc(C2=NN/C(=N\C(C)(C)C)SC2)c(C)n1C(C)C	> 10	–	IC50 (PBLUC_HILL_SLOPE 15.1, PBLUC_R_SQUARED 0.242, read-out: LUCIFERASE INFECTION ASSAY - IC50): 9.12 µM
Cc1ccc(C(=O)Nc2nc(-c3ccccn3)cs2)cc1S(=O)(=O)N1CCCCC1	8.14	–	IC50 (HEPG2TOX_HILL_SLOPE 16.5, HEPG2TOX_R_SQUARED 0.73, PBLUC_HILL_SLOPE 17.5, PBLUC_R_SQUARED 0.446, read-out: LUCIFERASE INFECTION ASSAY - IC50): 7.18 µM
Cn1c(CSCc2nc(-c3ccc(Cl)cc3)cs2)nnc1SCC(=O)Nc1ccc(Cl)cc1	> 6.15	–	IC50 (HEPG2TOX_HILL_SLOPE 16.7, HEPG2TOX_R_SQUARED 0.854, PBLUC_HILL_SLOPE 1.35, PBLUC_R_SQUARED 0.574, read-out: LUCIFERASE INFECTION ASSAY - IC50): > 6.15 µM
